Laboratory results taken from ChEMBL document CHEMBL5634148, “Synthesis and evaluation of novel pleuromutilin derivatives targeting the 50S ribosomal subunit for antibacterial ability” (Eur J Med Chem, 2023).
Converted amounts (≈) assume the structure as drawn.

Key:
Streptococcus agalactiae = assay: Antibacterial activity against Streptococcus agalactiae assessed as bacterial growth inhibition incubated for 18 to 24 hrs by NCCLS based assay; format: functional; settings: time 18-24 hrs
Staphylococcus aureus [1] = assay: Antibacterial activity against methicillin-resistant Staphylococcus aureus BNCC 337371 assessed as bacterial growth inhibition incubated for 18 to 24 hrs by NCCLS based assay; format: functional; settings: time 18-24 hrs
Enterococcus faecalis = assay: Antibacterial activity against Enterococcus faecalis assessed as bacterial growth inhibition incubated for 18 to 24 hrs by NCCLS based assay; format: functional; settings: time 18-24 hrs
[2] = test system: Staphylococcus epidermidis; assay: Antibacterial activity against methicillin-resistant Staphylococcus epidermidis ATCC 51625 assessed as bacterial growth inhibition incubated for 18 to 24 hrs by NCCLS based assay; format: functional; settings: time 18-24 hrs
Escherichia coli = assay: Antibacterial activity against Escherichia coli CICC 10389 assessed as bacterial growth inhibition incubated for 18 to 24 hrs by NCCLS based assay; format: functional; settings: time 18-24 hrs
Pasteurella multocida = assay: Antibacterial activity against Pasteurella multocida CVCC 1659 assessed as bacterial growth inhibition incubated for 18 to 24 hrs by NCCLS based assay; format: functional; settings: time 18-24 hrs
Staphylococcus aureus [3] = assay: Antibacterial activity against Staphylococcus aureus ATCC 25923 assessed as bacterial growth inhibition incubated for 18 to 24 hrs by NCCLS based assay; format: functional; settings: time 18-24 hrs
Staphylococcus aureus [4] = assay: Bactericidal activity against Staphylococcus aureus incubated for 24 hrs by time kill assay; format: functional, organism-based
Staphylococcus aureus [5] = assay: Bactericidal activity against methicillin-resistant Staphylococcus aureus ATCC 29213 incubated for 24 hrs by time kill assay; format: functional, organism-based
Staphylococcus aureus [6] = assay: Antibacterial activity against Staphylococcus aureus assessed as reduction in bacterial count at 6 times MIC incubated for 24 hrs by time kill assay; format: functional
Staphylococcus aureus [7] = assay: Antibacterial activity against methicillin-resistant Staphylococcus aureus ATCC 29213 assessed as reduction in bacterial count at 6 times MIC incubated for 24 hrs by time kill assay; format: functional

| SMILES | MIC (Streptococcus agalactiae) [µg/mL] | MIC (Staphylococcus aureus [1]) [µg/mL] | MIC (Enterococcus faecalis) [µg/mL] | MIC [2] [µg/mL] | MIC (Escherichia coli) [µg/mL] | MIC (Pasteurella multocida) [µg/mL] | MIC (Staphylococcus aureus [3]) [µg/mL] | Activity (Staphylococcus aureus [4]) | Activity (Staphylococcus aureus [5]) | log(activity) (Staphylococcus aureus [6]) | log(activity) (Staphylococcus aureus [7]) |
| --- | --- | --- | --- | --- | --- | --- | --- | --- | --- | --- | --- |
| C=C[C@]1(C)C[C@@H](OC(=O)CSc2ncnc(NCC)n2)[C@]2(C)[C@H](C)CC[C@]3(CCC(=O)[C@H]32)[C@@H](C)[C@@H]1O | 0.013 (≈ 0.0252 µM) | 0.125 (≈ 0.242 µM) | 16 (≈ 31 µM) | 0.125 (≈ 0.242 µM) | ≥ 64 | ≥ 64 | 0.125 (≈ 0.242 µM) | – | – | – | – |
| C=C[C@]1(C)C[C@@H](OC(=O)CSc2ncnc(N3CCCCC3)n2)[C@]2(C)[C@H](C)CC[C@]3(CCC(=O)[C@H]32)[C@@H](C)[C@@H]1O | 0.5 (≈ 0.898 µM) | 0.125 (≈ 0.225 µM) | 32 (≈ 57.5 µM) | 0.125 (≈ 0.225 µM) | ≥ 64 | ≥ 64 | 0.063 (≈ 0.113 µM) | – | – | – | – |
| C=C[C@]1(C)C[C@@H](OC(=O)CSc2ncnc(Cl)n2)[C@]2(C)[C@H](C)CC[C@]3(CCC(=O)[C@H]32)[C@@H](C)[C@@H]1O | 2 (≈ 3.94 µM) | 8 (≈ 15.7 µM) | 32 (≈ 63 µM) | 8 (≈ 15.7 µM) | ≥ 64 | ≥ 64 | 4 (≈ 7.87 µM) | – | – | – | – |
| C=C[C@]1(C)C[C@@H](OC(=O)CSc2ncnc(OCCCC)n2)[C@]2(C)[C@H](C)CC[C@]3(CCC(=O)[C@H]32)[C@@H](C)[C@@H]1O | 4 (≈ 7.33 µM) | 0.5 (≈ 0.916 µM) | ≥ 64 | 0.25 (≈ 0.458 µM) | ≥ 64 | ≥ 64 | 0.125 (≈ 0.229 µM) | – | – | – | – |
| C=C[C@]1(C)C[C@@H](OC(=O)CSc2ncnc(NCCNCC)n2)[C@]2(C)[C@H](C)CC[C@]3(CCC(=O)[C@H]32)[C@@H](C)[C@@H]1O | 0.25 (≈ 0.447 µM) | 0.125 (≈ 0.223 µM) | 32 (≈ 57.2 µM) | 0.25 (≈ 0.447 µM) | ≥ 64 | ≥ 64 | 0.063 (≈ 0.113 µM) | – | – | – | – |
| C=C[C@]1(C)C[C@@H](OC(=O)CSc2ncnc(OCCC)n2)[C@]2(C)[C@H](C)CC[C@]3(CCC(=O)[C@H]32)[C@@H](C)[C@@H]1O | 8 (≈ 15 µM) | 16 (≈ 30.1 µM) | ≥ 64 | 16 (≈ 30.1 µM) | ≥ 64 | ≥ 64 | 16 (≈ 30.1 µM) | – | – | – | – |
| C=C[C@]1(C)C[C@@H](OC(=O)CSc2ncnc(N3CCOCC3)n2)[C@]2(C)[C@H](C)CC[C@]3(CCC(=O)[C@H]32)[C@@H](C)[C@@H]1O | 0.125 (≈ 0.224 µM) | 0.063 (≈ 0.113 µM) | 32 (≈ 57.3 µM) | 0.125 (≈ 0.224 µM) | ≥ 64 | ≥ 64 | 0.063 (≈ 0.113 µM) | Dose-Dependent Effect | Dose-Dependent Effect | – | – |
| C=C[C@]1(C)C[C@@H](OC(=O)CSc2ncnc(OC3CCCC3)n2)[C@]2(C)[C@H](C)CC[C@]3(CCC(=O)[C@H]32)[C@@H](C)[C@@H]1O | 8 (≈ 14.3 µM) | 16 (≈ 28.7 µM) | ≥ 64 | 16 (≈ 28.7 µM) | ≥ 64 | ≥ 64 | 4 (≈ 7.17 µM) | – | – | – | – |
| C=C[C@]1(C)C[C@@H](OC(=O)CSc2ncnc(NCCN)n2)[C@]2(C)[C@H](C)CC[C@]3(CCC(=O)[C@H]32)[C@@H](C)[C@@H]1O | 2 (≈ 3.76 µM) | 8 (≈ 15 µM) | ≥ 64 | 8 (≈ 15 µM) | ≥ 64 | ≥ 64 | 2 (≈ 3.76 µM) | – | – | – | – |
| C=C[C@]1(C)C[C@@H](OC(=O)CSc2ncnc(NCCN3CCCC3)n2)[C@]2(C)[C@H](C)CC[C@]3(CCC(=O)[C@H]32)[C@@H](C)[C@@H]1O | 0.125 (≈ 0.213 µM) | 0.125 (≈ 0.213 µM) | 32 (≈ 54.6 µM) | 0.125 (≈ 0.213 µM) | ≥ 64 | ≥ 64 | 0.063 (≈ 0.108 µM) | – | – | – | – |
| C=C[C@]1(C)C[C@@H](OC(=O)CSc2ncnc(NCCN(C)C)n2)[C@]2(C)[C@H](C)CC[C@]3(CCC(=O)[C@H]32)[C@@H](C)[C@@H]1O | 0.063 (≈ 0.113 µM) | 0.063 (≈ 0.113 µM) | 16 (≈ 28.6 µM) | 0.125 (≈ 0.223 µM) | ≥ 64 | ≥ 64 | 0.031 (≈ 0.0554 µM) | Dose-Dependent Effect | Dose-Dependent Effect | 2.14 | 0.32 |
